Data: US4305942A, “Xanthine oxidase inhibitor and therapeutic treatment using same” (Siegfried Aktiengesellschaft, priority 1979, dated 1981)
Read-outs that look alike come from different tables or passages of the source.

Assays:
[1] = cited from earlier work
xanthine oxidase = biological target: T1, xanthine oxidase (Bos taurus, UniProt P80457); test: xanthine oxidase inhibition in vitro (UV-spectrophotometric uric acid formation at 290 nm from hypoxanthine); type: biochemical; settings: for Inhibition (%) of xanthine oxidase: 6 minutes, ambient temperature
T1 construct: purchased CALBIOCHEM 682151
T1 sequence (P80457 whole entry): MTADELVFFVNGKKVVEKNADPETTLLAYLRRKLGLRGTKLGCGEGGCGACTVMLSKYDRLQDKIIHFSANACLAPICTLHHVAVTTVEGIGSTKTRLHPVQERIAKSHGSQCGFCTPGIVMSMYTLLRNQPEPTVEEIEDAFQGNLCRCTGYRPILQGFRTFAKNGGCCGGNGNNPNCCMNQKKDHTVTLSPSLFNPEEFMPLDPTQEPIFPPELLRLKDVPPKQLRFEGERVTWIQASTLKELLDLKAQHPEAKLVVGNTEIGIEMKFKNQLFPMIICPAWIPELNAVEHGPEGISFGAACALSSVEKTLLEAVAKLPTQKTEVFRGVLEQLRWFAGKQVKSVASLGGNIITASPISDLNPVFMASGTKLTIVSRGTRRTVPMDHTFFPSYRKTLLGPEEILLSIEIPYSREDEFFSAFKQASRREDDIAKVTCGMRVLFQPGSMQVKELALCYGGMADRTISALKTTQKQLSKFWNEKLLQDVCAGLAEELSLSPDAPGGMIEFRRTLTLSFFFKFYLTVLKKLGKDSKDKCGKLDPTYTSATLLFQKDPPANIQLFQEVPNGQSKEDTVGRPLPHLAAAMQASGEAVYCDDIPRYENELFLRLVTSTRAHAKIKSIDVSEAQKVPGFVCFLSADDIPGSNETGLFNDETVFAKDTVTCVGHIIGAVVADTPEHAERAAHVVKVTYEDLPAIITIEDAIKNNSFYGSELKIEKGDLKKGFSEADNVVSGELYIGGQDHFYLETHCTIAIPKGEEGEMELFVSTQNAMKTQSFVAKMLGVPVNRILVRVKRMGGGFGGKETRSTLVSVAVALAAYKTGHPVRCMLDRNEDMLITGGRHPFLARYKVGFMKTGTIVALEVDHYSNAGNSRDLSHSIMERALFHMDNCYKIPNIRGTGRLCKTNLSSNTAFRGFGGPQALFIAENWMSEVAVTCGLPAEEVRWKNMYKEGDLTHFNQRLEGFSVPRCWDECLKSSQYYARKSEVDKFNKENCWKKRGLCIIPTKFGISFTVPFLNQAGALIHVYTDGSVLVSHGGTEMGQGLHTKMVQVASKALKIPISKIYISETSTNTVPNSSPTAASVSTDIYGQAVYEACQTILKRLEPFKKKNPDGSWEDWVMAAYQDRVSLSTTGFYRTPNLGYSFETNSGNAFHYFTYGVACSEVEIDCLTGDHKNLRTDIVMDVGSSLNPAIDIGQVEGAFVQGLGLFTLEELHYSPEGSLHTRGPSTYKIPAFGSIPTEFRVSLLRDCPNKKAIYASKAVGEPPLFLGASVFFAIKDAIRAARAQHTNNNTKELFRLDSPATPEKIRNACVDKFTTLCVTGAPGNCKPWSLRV
Method: In the human in vivo metabolism the xanthine oxidase decomposes xanthine and hypoxanthine, respectively, to yield uric acid. This decomposition reaction can be perfectly simulated in vitro. For this purpose buffered solutions of (a) hypoxanthine, (b) xanthine oxidase and (c) the test substance are prepared. Solution (a) and (c) are mixed and filled into the cuvette of a UV-spectrophotometer. Solution (b) is then added into the cuvette. The UV-spectrophotometer is adjusted to 290 nm, i.e. to one of the main absorption lines of uric acid. Registration of the intensity of the 290 nm line is commenced immediately upon adding solution (b), i.e., upon adding the xanthine oxidase solution. The measurement is continued for exactly 6 minutes. For each test substance a certain number of measurements is carried out at varying concentrations of the test substance. The registered intensity values obtained after a certain time, here after 6 minutes, are compared to a standard registration containing as a solution (c) a blank buffer solution.
For the present measurements the UV-spectrophotometer used is a ZEISS PM Q II.
Solution (a) is 1 ml hypoxanthine puriss (FLUKA No. 56700) dissolved in a concentration of 1.5×10^-4 moles/liter in a 0.067 molar phosphate buffer solution having a pH of 7.4.
Solution (b) is 1 ml xanthine oxidase (CALBIOCHEM No. 682151) having a specific activity of 2.65 I.U./ml at 30° C., and is diluted in a ratio of 1:200 in the same phosphate buffer as used in solution (a).
Solution (c) is 1 ml of blank phosphate buffer for controls (standards) and a solution of the test substance dissolved in said phosphate buffer in varying concentrations, respectively.
The spectrophotometric measurements are carried out at ambient temperature.

SMILES	plasma level ([1]; 300 mg/d allopurinol orally in one single portion)	Inhibition (%) of xanthine oxidase (xanthine oxidase; 1.25 × 10^-5 moles/liter azapropazone, pH 7.4)	Inhibition (%) of xanthine oxidase (xanthine oxidase; 2.50 × 10^-5 moles/liter azapropazone, pH 7.4)	Inhibition (%) of xanthine oxidase (xanthine oxidase; 5.00 × 10^-5 moles/liter azapropazone, pH 7.4)	IC50 (xanthine oxidase; 50% inhibition concentration (xanthine oxidase), IC50 expressed in μg/ml)	IC50 (xanthine oxidase; 50% inhibitive concentration IC50 (xanthine oxidase), interpolated from inhibition values, hypoxanthine substrate, pH 7.4)	plasma level ([1]; 1000 mg/d azapropazone orally in one single portion)
Oc1ncnc2[nH]ncc12 [allopurinol]	2000 ng/mL						
CCCC1C(=O)N2C(N(C)C)=Nc3ccc(C)cc3N2C1=O (stereo not shown) [azapropazone, 3-dimethylamino-7-methyl-1,2-(n-propylmalonyl)-1,2-dihydro-1,2,4-benzotriazine dihydrate]		20%	35%	55%	44.9 µM	40 µM	80800 ng/mL
